# Data taken from US7125542B2, “Methods and compositions for treating conditions of the eye” (Massachusetts Eye and Ear Infirmary, priority 2000, dated 2006).
# Read-outs that look alike come from different tables or passages of the source.
# Tests used:
# [1] = tested on: Caspase 3-like (DEVD-ase) protease; assay: Caspase 3-like (DEVD-ase) activation, Ac-DEVD-AFC cleavage in RPE lysates; type: cell-based, Human; settings: RPE, 10, 20 and 40 J/cm^2
# Description: In order to investigate the role of apoptosis in Lu-Tex/PDT mediated cell death in BRCE and RPE, the activation of Caspase 3-like (DEVD-ase) protease, a hallmark of apoptosis (Nicholson (1997) TIBS 22: 299–306), was monitored. The kinetics of activation were measured spectrofluorometrically by assaying the hydrolysis of a substrate that can be cleaved only by the caspase 3-like protease family members. […]
# In order to measure protease activity, aliquots containing 50 1 μg of cellular protein were incubated with 14 μM (final concentration N-acetyl (Asp-Glu-Val-Asp (SEQ. ID NO: 3)-(7-amino-4-trifluoromethly coumarin) (Ac-DEVD-AFC); (Pharmingen San Diego, Calif.) in 1 ml protease assay buffer pH 7.2 (20 mM piperazine-N-N^1-bis (2-ethanesulfuric acid) (PIPES), 100 mM NaCl, 10 mM dithiothreitol (DTT), 1 mM EDTA, 0.1%(w/v) 3-[(3-Cholamidopropyl) dimethyl ammonio]-1-propane sulfonate (CHAPS), and 10% sucrose) at 37° C. for 1 hour. Fluorescence was measured using a Perkin-Elmer MPF-44A spectrofluorometer (λexcitation, 400 nm; λemission 505 nm). […]
# Bak = assay: Western blot of Bcl-2 family members in RPE cells after Lu-Tex/PDT; type: cell-based, Human; settings: up to 4 hours post-PDT, then decline
# Description: (§1) In order to evaluate the expression of Bcl-2 family members in BRCE and RPE cells after Lu-Tex/PDT, BRCE and RPE cells were subjected to Lu-Tex/PDT and the resultant cellular lysates subjected to Western blot analysis for detection of the anti-apoptotic Bcl-2, Bcl-xL markers, and the pro-apoptotic Bax and Bak markers.
# (§2) Cell lysates were produced as described in Example 3. Sodium dodecyl sulfate-polyacrylamide gel electrophoresis of proteins was performed with 12% SDS-polyacrylamide gels. All samples were boiled in denaturing sample buffer, and equal amounts of proteins were loaded per lane. Proteins were separated at room temperature under reducing conditions at 120 V. Western blot transfer of separated proteins was performed at room temperature, using polyvinylidene fluoride membranes at 50 mA for 1 hr. To verify equal protein loading, blots were stained with 0.1% ponceau red (Sigma) diluted in 5% acetic acid. Afterwards, blots were blocked for 1 hr in Tris buffered saline (TBS; 10 mM Tris-HCl, pH 7.5, and 150 mM NaCl) containing 5% non-fat dried milk. Next, the membranes were probed with an appropriate dilution (1:250 to 1:1000) of primary antibody in TBS containing 2.5% non-fat dried milk for one and a half hours. Mouse polyclonal antibodies against Bcl-2, Bcl-xL, Bax and Bak were purchased from Pharmingen. […]
# Bcl-xL = assay: as above; type: cell-based, Human; settings: up to 4 hours post-PDT, then plateau
# Description: as §1, §2
# [2] = tested on: Human retinal pigment epithelial (RPE) cells; assay: Cell survival, 1-week cell proliferation assay in RPE cells; type: cell-based; settings: for Cellular Survival (%): RPE
# Description: (§3) Bovine retinal capillary endothelial (BRCE) cells (from Patricia A. D'Amore, Schepens Eye Research Institute, Boston, Mass.) and Human retinal pigment epithelial (RPE) cells (from Anthony P. Adamis, Massachusetts Eye & Ear Infirmary, Boston, Mass.) were grown at 37° C., 5% CO2 in Dulbecco's modified Eagle's medium (DMEM; Sigma, St. Louis, Mo.), 5% heat-inactivated fetal bovine serum (FBS, Gibco, Grand Island, N.Y.), supplemented with L-glutamine, penicillin, and streptomycin (Gibco Grand Island, N.Y.). Lutetium Texaphyrin (Lu-Tex) was obtained from Alcon Laboratories, Inc. (Fort Worth, Tex.) as a stock solution of 2 mg/ml, stable in the dark at 4° C., and used in accordance with the manufacturer's guidelines.
# (§4) Cell survival was measured using a cell proliferation assay. Briefly, BRCE or RPE cells were plated at a density of 10^5 cells in DMEM with 5% FBS and incubated at 37° C. in 5% CO2. After eighteen hours, and if desired, recombinant human angiostatin (Calbiochem, La Jolla, Calif.) was added at a concentration of 500 ng/ml. Eighteen hours later, the medium was removed and replaced by 3 μg/ml Lu-Tex in complete media. Thirty minutes later, the cultures were exposed to timed irradiation using an argon/dye Photocoagulator at 732 nm and laser delivery system (model 920, Coherent Inc., Palo Alto, Calif.). Irradiance was delivered at a rate of […] to give a total dose of 5 to 20 J/cm^2, and irradiation time ranged from 7 to 28 minutes. After irradiation, the medium was removed and replaced with complete medium. Cultures were returned to the incubator for 7 days, after which cells were dispersed in trypsin, counted in a masked fashion, and the surviving fraction determined. Cultures were photographed at various times following Lu-Tex/PDT using a 16×-0.32 numeric aperture on a phase contrast inverted microscope (Diaphot, Nikon, Melville, N.Y.).
# Bcl-2 = assay: Western blot of Bcl-2 family members in BRCE cells after Lu-Tex/PDT; type: cell-based, Bovine; settings: after Lu-Tex/PDT at LD50
# Description: as §1
# (§5) Cell lysates were produced as described in Example 3. Sodium dodecyl sulfate-polyacrylamide gel electrophoresis of proteins was performed with 12% SDS-polyacrylamide gels. All samples were boiled in denaturing sample buffer, and equal amounts of proteins were loaded per lane. Proteins were separated at room temperature under reducing conditions at 120 V. Western blot transfer of separated proteins was performed at room temperature, using polyvinylidene fluoride membranes at 50 mA for 1 hr. To verify equal protein loading, blots were stained with 0.1% ponceau red (Sigma) diluted in 5% acetic acid. Afterwards, blots were blocked for 1 hr in Tris buffered saline (TBS; 10 mM Tris-HCl, pH 7.5, and 150 mM NaCl) containing 5% non-fat dried milk. Next, the membranes were probed with an appropriate dilution (1:250 to 1:1000) of primary antibody in TBS containing 2.5% non-fat dried milk for one and a half hours. Mouse polyclonal antibodies against Bcl-2, Bcl-xL, Bax and Bak were purchased from Pharmingen. After incubation with primary antibody, the blots were washed for 30 minutes with frequent changes of TBS, blocked in 1% non-fat dried milk in TBS for 30 minutes, followed by incubation in a peroxidase-coupled secondary antibody for 1 hour in TBS containing 1% non-fat dried milk. The blots were washed for 1 hour with frequent changes of TBST (TBS, 0.1% Tween). Immunoblot analysis was performed using enhanced chemiluminescence plus Western blotting detection reagents (Amersham, Pharmacia Biotec Piscataway, N.J.) followed by exposure to x-ray film (ML Eastman Kodak, Rochester, N.Y.).
# Bax = assay: as above; type: cell-based, Bovine; settings: after Lu-Tex/PDT at LD50
# Description: as §1, §5
# [3] = stock solution of 2 mg/ml, in the dark at 4° C.; cited from earlier work
# [4] = tested on: Human retinal pigment epithelial (RPE) cells; settings: cited from earlier work
# RPE cells = assay: Cellular morphology following PDT, RPE cells; type: cell-based, Human; settings: after treatment
# Description: (§6) Experiments were performed to establish how PDT effects the cellular morphology of BRCE and RPE cells. The cells were treated and exposed to PDT either alone or in combination with angiostatin as described in Example 1. Although cells appeared severely damaged immediately after PDT, subsequent recovery occurred in certain circumstances. One week after PDT, some cells disappeared while those that remained regained their spindle shape and their ability to attach.
# [5] = typical; cited from earlier work
# [6] = tested on: Bovine retinal capillary endothelial (BRCE) cells; assay: Cell survival, 1-week cell proliferation assay in BRCE cells; type: cell-based; settings: for Cellular Survival (%): BRCE
# Description: as §3, §4
# In order to assess the effect of combining angiostatin to Lu-Tex/PDT on BRCE cell survival, cells were pre-treated for 18 hours with 500 ng/ml angiostatin after which they were treated with Lu-Tex/PDT at various fluences. Cellular survival was measured by the 1-week cellular proliferation assay.
# [7] = tested on: Caspase 3-like (DEVD-ase) protease; assay: Caspase 3-like (DEVD-ase) activation, Ac-DEVD-AFC cleavage in BRCE lysates; type: cell-based, Bovine
# Description: In order to investigate the role of apoptosis in Lu-Tex/PDT mediated cell death in BRCE and RPE, the activation of Caspase 3-like (DEVD-ase) protease, a hallmark of apoptosis (Nicholson (1997) TIBS 22: 299–306), was monitored. The kinetics of activation were measured spectrofluorometrically by assaying the hydrolysis of a substrate that can be cleaved only by the caspase 3-like protease family members.
# Various times after Lu-Tex/PDT, 10^6 cells were collected by centrifugation, and the washed cell pellet resuspended in 500 μl of ice-cold lysis buffer (pH 7.5) containing 10 mM Tris, 130 mM NaCl, 1% Triton X-100, 10 mM NaF, 10 mM NaPi, 10 mM NaPPi, 16 μg/ml benzamidine, 10 μg/ml phenanthroline, 10 μg/ml aprotinin, 10 μg/ml leupeptin, 10 μg/ml pepstatin and 4 mM 4(2-aminoethyl)-benzene-sulfanyl fluoride hydrochloride (AEBSF). Cellular lysates were stored in aliquots at −84° C. for later protease activity assay or Western blot analysis. A protein assay (Coomassie Plus protein assay (Pierce, Rockford, Ill.) with a bovine serum albumin (BSA) standard was used to assay protein concentration in cell extract.
# In order to measure protease activity, aliquots containing 50 1 μg of cellular protein were incubated with 14 μM (final concentration N-acetyl (Asp-Glu-Val-Asp (SEQ. ID NO: 3)-(7-amino-4-trifluoromethly coumarin) (Ac-DEVD-AFC); (Pharmingen San Diego, Calif.) in 1 ml protease assay buffer pH 7.2 (20 mM piperazine-N-N^1-bis (2-ethanesulfuric acid) (PIPES), 100 mM NaCl, 10 mM dithiothreitol (DTT), 1 mM EDTA, 0.1%(w/v) 3-[(3-Cholamidopropyl) dimethyl ammonio]-1-propane sulfonate (CHAPS), and 10% sucrose) at 37° C. for 1 hour. Fluorescence was measured using a Perkin-Elmer MPF-44A spectrofluorometer (λexcitation, 400 nm; λemission 505 nm). Cellular protein served as the blank.
# In order to examine the effect of combining angiostatin and Lu-Tex/PDT on DEVD-ase activation in BRCE cells, cells were treated with angiostatin alone, Lu-Tex/PDT alone and angiostatin/Lu-Tex/PDT, following which caspase 3-like activity was assayed as described above. Fluences of 20 and 40 J/cm^2 were used, corresponding to LD100 of combination angiostatin/Lu-Tex/PDT and Lu-Tex/PDT alone respectively. […] As in the case of BRCE cells treated with Lu-Tex/PDT alone, the rate of entry into apoptosis of BRCE cells treated with combination of angiostatin/Lu-Tex/PDT was time-dependent.
# BRCE cells = assay: Cellular morphology following PDT, BRCE cells; type: cell-based, Bovine; settings: one week after treatment
# Description: as §6
# [8] = fluence 5 J/cm^2, 3 μg/ml Lu-Tex, angiostatin 500 ng/ml where used, 7 days, mean ± SD
# [9] = fluence 10 J/cm^2, 3 μg/ml Lu-Tex, angiostatin 500 ng/ml where used, 7 days, mean ± SD
# [10] = fluence 20 J/cm^2, 3 μg/ml Lu-Tex, angiostatin 500 ng/ml where used, 7 days, mean ± SD
# [11] = angiostatin alone 500 ng/ml, no PDT
compound,measurement,setting,value
"CC(=O)[O-].CC(=O)[O-].CCc1c(CC)c2cc3nc(cnc4cc(OCCOCCOCCOC)c(OCCOCCOCCOC)cc4ncc4nc(cc1[n-]2)C(CCCO)=C4C)C(C)=C3CCCO.O.[Lu+3] [Lu-Tex/PDT, Lutetium Texaphyrin]",earliest elevation of caspase 3-like activity post-Lu-Tex/PDT,[1],10 min
same,time of peak caspase 3-like activity post-Lu-Tex/PDT,[1],40 min
same,Bak protein level,Bak,upregulation
same,Bcl-xL protein level,Bcl-xL,upregulation
same,Cellular Survival (%),[2]; [8],94.55 ± 1.60 (5J/cm^2) %
same,Cellular Survival (%),[2]; [9],59.59 ± 3.56 (10J/cm^2) %
same,Cellular Survival (%),[2]; [10],53.47 ± 3.18 (20J/cm^2) %
same,improvement of RPE cell survival post-PDT,[2]; light dose 20 J/cm^2 (instead of 40 J/cm^2),20%
same,Bcl-2 protein level,Bcl-2,downregulation
same,Bax protein level,Bax,upregulation
same,cellular ratio of Bax to Bcl-2 protein,Bax,increase
same,stability of stock solution,[3],stable
same,RPE cell survival,"[4]; fluence 20 J/cm^2, previous studies",about 43%
same,RPE cell survival,"[4]; fluence 40 J/cm^2, previous studies",~21%
same,cellular morphology / fate of RPE cells,RPE cells,appeared unchanged
same,persistence in the target neovasculature,[5],about twenty
same,time until present within the target neovasculature post administration,[5],one
same,Cellular Survival (%),[6]; [8],79.13 ± 4.05 (5J/cm^2) %
same,Cellular Survival (%),[6]; [9],53.17 ± 0.32 (10J/cm^2) %
same,Cellular Survival (%),[6]; [10],33.34 ± 2.26 (20J/cm^2) %
same,dark toxicity,"[6]; at the concentration of Lu-Tex used (3 μg/ml), no light",no dark toxicity was observed
same,lethality of BRCE cells,[6]; fluence 40 J/cm^2,100%
same,lethal dose (LD100) for BRCE cells,[6]; fluence of light,40 J/cm^2
same,increase of caspase 3-like activation in BRCE cells as compared to RPE cells,[7]; 10 J/cm^2 and 20 J/cm^2,about 50%
same,caspase 3-like activation levels in BRCE relative to RPE cells,[7]; 40 J/cm^2,5 fold
same,"caspase 3-like (DEVD-ase) activity, Lu-Tex/PDT (40 J/cm^2) compared with angiostatin/Lu-Tex/PDT (20 J/cm^2)",[7]; BRCE,increased levels
same,earliest elevation of caspase 3-like activity post-Lu-Tex/PDT,"[7]; BRCE, 10, 20 and 40 J/cm^2",10 min
same,time of peak caspase 3-like activity post-Lu-Tex/PDT,"[7]; BRCE, 10, 20 and 40 J/cm^2",40 min
C=Cc1c(C)c2cc3nc(c(CC(=O)N[C@@H](CC(=O)O)C(=O)O)c4[nH]c(cc5nc(cc1[nH]2)C(C)=C5CC)c(C)c4C(=O)O)[C@@H](CCC(=O)O)[C@@H]3C [N-aspartyl chlorin e6],persistence in the target neovasculature,[5],about twenty
same,time until present within the target neovasculature post administration,[5],one
O=C([O-])c1c(Cl)c(Cl)c(Cl)c(Cl)c1-c1c2cc(I)c(=O)c(I)c-2oc2c(I)c([O-])c(I)cc12.[Na+].[Na+] [rose bengal],persistence in the target neovasculature,[5],about ten
same,time until present within the target neovasculature post administration,[5],one
Angiostatin,Cellular Survival (%),[2]; [11],99.09%
same,cytotoxicity on human RPE cells,[2]; human angiostatin alone,no cytotoxicity was observed
same,cellular morphology / fate of RPE cells,RPE cells,continued to proliferate and reached confluence
same,cellular morphology / fate of BRCE cells,BRCE cells,continued to proliferate and reached confluence
same,Cellular Survival (%),[6]; [11],87.39%
same,killing of BRCE cells,"[6]; angiostatin alone, 500 ng/ml",12.61%
benzoporphyrin derivative,persistence in the target neovasculature,[5],about fifty
same,time until present within the target neovasculature post administration,[5],one
